# Literature values, collected in patent publication US8633150B2, “Methods for inducing sustained immune response” (TNI Biotech, Inc., priority 2001, dated 2014).
# Where two headings read alike, the source gives them in different places.
# Experiments:
# [1] = Bihari
# [2] = normal volunteers, HIV positive, and cancer patients; Plotnikoff, et al., 1997
smiles,measurement,setting,value
"CSCC[C@H](NC(=O)[C@H](Cc1ccccc1)NC(=O)CNC(=O)CNC(=O)[C@@H](N)Cc1ccc(O)cc1)C(=O)O [met-enkephalin, methionine enkephalin]",half-life in plasma,"[1]; et al., 1991",approximately 2 minutes
same,half-life in plasma,"[1]; et al., 1991, listed as Met-enkelphalin",approximately two
same,toxicity in clinical studies,[2],no major toxicity
